From patent publication US12551532B2, “Long-acting amylin receptor agonists and uses thereof” (Eli Lilly and Company, priority 2021, dated 2026)
Starred links: 1 amine or outer side, 2 acyl side, 3 side chain; linkers in the order of their positions; H or OH if unused. Positions of bridges follow the written chain, without caps; N, C: chain ends. Non-standard residues stand in square brackets, D forms with d. Residues, ends and D or L forms follow the SMILES beside them. Groups on a side chain read outwards from the residue. *: point of attachment. C20 diacid = O=C(O)CCCCCCCCCCCCCCCCCCC(=O)*; γGlu = O=C(O)[C@H](CCC(=O)[*:2])N[*:1]; αMeF = C[C@](N)(Cc1ccccc1)C(=O)O; NMeD = CN[C@@H](CC(=O)O)C(=O)O; NMeN = CN[C@@H](CC(N)=O)C(=O)O; αMeL = CC(C)C[C@](C)(N)C(=O)O; Orn = NCCC[C@H](N)C(=O)O; AEEA = NCCOCCOCC(=O)O; CH2 = C([*:1])[*:2]

Tests used:
[1] = molecular target: T1, hAMY1R (Homo sapiens, UniProt O60894+P30988); assay: hAMY1R cAMP functional activity (HTRF); assay type: cell-based; settings: ±SE; UMUC3 cells overexpressing hAMY1R; relative EC50
T1 construct: expressed in transfected cells
T1 sequence (O60894 27-148 partner, one chain of several): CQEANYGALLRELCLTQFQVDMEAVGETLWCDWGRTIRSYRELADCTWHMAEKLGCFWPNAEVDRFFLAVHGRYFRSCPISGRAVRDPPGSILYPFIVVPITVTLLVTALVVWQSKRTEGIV
Method: (§1) The AMY1 and CT receptors are GPCRs that are functionally coupled to Gas proteins. […] In vitro activity of peptides is measured by the amount of cAMP formed in human AMY1R and CTR overexpressed cells.
Human AMY1R stable cell lines are generated by further transfecting human RAMP1-pCMVpuroPB (T14213) into UMUC3 hCTR clone cells. After selection, the mRNA levels human RAMP1 from different clones are measured to confirm the expression of human AMY1R.
(§2) hAMY1R cells are cultured in MEM 1× (Corning) supplemented with 10% FBS, 1% antibiotic/antimycotic solution, 1 mM sodium pyruvate, 1×MEM NEAA, 1× GlutaMAX-I, 200 μg/mL hygromycin B, and 0.4 μg/mL puromycin. The hCTR cells are cultured in the same medium lacking the puromycin. Cultured cells are grown to 70% confluency and then incubated overnight with fresh medium.
(§3) Peptides diluted in DMSO are added (200 nL/well) in a 1:3 dilution series using ECHO acoustic liquid handler (Beckman). Cultured cells are detached with TrypLE Express (Gibco), resuspended in assay buffer, and 10 μL containing 1200 cells/well (hCTR) or 1500 cells/well (hAMY1R) are dispensed into each well. The plates are incubated at room temperature for 1 hour.
(§4) The amount of intracellular cAMP is quantitated using HTRF technology (Homogeneous Time Resolved Fluorescence; Cisbio) as per vendor instructions. Briefly, 10 μL cAMP-d2 conjugate and 10 μL anti-cAMP-cryptate conjugate in lysis buffer are incubated with the treated cells at room temperature for 60 min. […] The raw data are converted to cAMP amount (pmol/well) using a cAMP standard curve generated for each experiment.

[2] = molecular target: T2, human CT receptors (Homo sapiens, UniProt P30988); assay: hCTR cAMP functional activity (HTRF); assay type: cell-based; settings: ±SE; UMUC3 cells overexpressing hCTR; relative EC50
T2 construct: expressed in transfected cells
T2 sequence (P30988 25-474): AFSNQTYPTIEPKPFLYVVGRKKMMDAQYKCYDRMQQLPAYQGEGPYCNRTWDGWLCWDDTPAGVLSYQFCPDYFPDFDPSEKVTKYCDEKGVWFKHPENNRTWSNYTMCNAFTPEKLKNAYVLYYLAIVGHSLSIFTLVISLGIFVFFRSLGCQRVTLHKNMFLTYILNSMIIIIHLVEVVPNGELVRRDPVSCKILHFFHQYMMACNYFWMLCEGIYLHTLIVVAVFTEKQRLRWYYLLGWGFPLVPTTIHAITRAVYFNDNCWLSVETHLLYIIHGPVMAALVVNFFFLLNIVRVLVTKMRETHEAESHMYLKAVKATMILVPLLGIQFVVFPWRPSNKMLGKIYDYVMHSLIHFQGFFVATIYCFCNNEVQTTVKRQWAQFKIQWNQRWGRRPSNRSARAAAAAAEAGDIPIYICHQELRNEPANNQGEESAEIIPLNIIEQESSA
Method: as §1
Human CT receptors are stably expressed in human urinary bladder cells (UM-UC-3, or UMUC3) under control of a pcDNA expression vector. […] After 20 days under selection, the mRNA levels from different clones are measured to confirm the expression of hCTR. To determine the function of over-expressed hCTR cells, the intracellular cAMP levels in response to salmon calcitonin are measured and compared to the expression of hCTR mRNA in each clone.
as §2, §3, §4

| Compound | EC50 [1] | EC50 [2] |
| --- | --- | --- |
| CC(C)C[C@H](NC(=O)[C@H](CCCN)NC(=O)CNC(=O)[C@@H](NC(=O)[C@H](C)NC(=O)[C@@H]1CSCSC[C@H](NC(=O)CC[C@H](N)C(=O)O)C(=O)N[C@@H](CC(N)=O)C(=O)N[C@@H]([C@@H](C)O)C(=O)N[C@@H](C)C(=O)N[C@@H]([C@@H](C)O)C(=O)N1)[C@@H](C)O)C(=O)N[C@@H](C)C(=O)N[C@@H](CCC(=O)O)C(=O)N[C@@](C)(Cc1ccccc1)C(=O)N[C@@H](CC(C)C)C(=O)N[C@H](C(=O)N[C@@H](CCCNC(=N)N)C(=O)N[C@@H](CO)C(=O)N[C@@H](CO)C(=O)N[C@@H](CC(N)=O)C(=O)N(C)[C@@H](CC(N)=O)C(=O)N[C@@H](Cc1ccccc1)C(=O)NCC(=O)N1CCC[C@H]1C(=O)N[C@@H](CCCCN)C(=O)N[C@@H](CC(C)C)C(=O)N1CCC[C@H]1C(=O)N1CCC[C@H]1C(=O)N[C@H](C(=O)N[C@@H](CCC(=O)O)C(=O)N[C@H](C(=O)NCC(=O)N[C@@H](CO)C(=O)N[C@@H](CC(N)=O)C(=O)N[C@H](C(=O)N[C@@H](Cc1ccc(O)cc1)C(N)=O)[C@@H](C)O)C(C)C)[C@@H](C)O)C(C)C [Compound I, γE-CNTATCATG-Orn-LAE-αMeF-LVRSSN-NMeN-FGPKLPPTEVGSNTY-NH2] (γGlu-CNTATCATG[Orn]LAE[αMeF]LVRSSN[NMeN]FGPKLPPTEVGSNTY-NH2; linker 1-6 via CH2) | 0.133 ± 0.012 nM | 18 ± 1.08 nM |
| CC(C)C[C@H](NC(=O)[C@H](CCCN)NC(=O)CNC(=O)[C@@H](NC(=O)[C@H](C)NC(=O)[C@@H]1CSCSC[C@H](NC(=O)CC[C@H](N)C(=O)O)C(=O)N[C@@H](CC(N)=O)C(=O)N[C@@H]([C@@H](C)O)C(=O)N[C@@H](C)C(=O)N[C@@H]([C@@H](C)O)C(=O)N1)[C@@H](C)O)C(=O)N[C@@H](C)C(=O)N[C@@H](CCC(=O)O)C(=O)N[C@@](C)(Cc1ccccc1)C(=O)N[C@@H](CC(C)C)C(=O)N[C@H](C(=O)N[C@@H](CCCNC(=N)N)C(=O)N[C@@H](CO)C(=O)N[C@@H](CO)C(=O)N[C@@H](CC(N)=O)C(=O)N(C)[C@@H](CC(=O)O)C(=O)N[C@@H](Cc1ccccc1)C(=O)NCC(=O)N1CCC[C@H]1C(=O)N[C@@H](CCCCN)C(=O)N[C@@H](CC(C)C)C(=O)N1CCC[C@H]1C(=O)N1CCC[C@H]1C(=O)N[C@H](C(=O)N[C@@H](CCC(=O)O)C(=O)N[C@H](C(=O)NCC(=O)N[C@@H](CO)C(=O)N[C@@H](CC(N)=O)C(=O)N[C@H](C(=O)N[C@@H](Cc1ccc(O)cc1)C(N)=O)[C@@H](C)O)C(C)C)[C@@H](C)O)C(C)C [Compound III, γE-CNTATCATG-Orn-LAE-αMeF-LVRSSN-NMeD-FGPKLPPTEVGSNTY-NH2] (γGlu-CNTATCATG[Orn]LAE[αMeF]LVRSSN[NMeD]FGPKLPPTEVGSNTY-NH2; linker 1-6 via CH2) | 0.156 ± 0.027 nM | 16.3 ± 3.03 nM |
| CC(C)C[C@H](NC(=O)[C@H](CCCCN)NC(=O)CNC(=O)[C@@H](NC(=O)[C@H](C)NC(=O)[C@@H]1CSCSC[C@H](NC(=O)CC[C@H](N)C(=O)O)C(=O)N[C@@H](CC(N)=O)C(=O)N[C@@H]([C@@H](C)O)C(=O)N[C@@H](C)C(=O)N[C@@H]([C@@H](C)O)C(=O)N1)[C@@H](C)O)C(=O)N[C@@H](C)C(=O)N[C@@H](CCC(=O)O)C(=O)N[C@@H](Cc1ccccc1)C(=O)N[C@@H](CC(C)C)C(=O)N[C@H](C(=O)N[C@@H](CCCNC(=N)N)C(=O)N[C@@H](CO)C(=O)N[C@@H](CO)C(=O)N[C@@H](CC(N)=O)C(=O)N[C@@H](CC(N)=O)C(=O)N[C@@H](Cc1ccccc1)C(=O)NCC(=O)N1CCC[C@H]1C(=O)N[C@@H](CCCCNC(=O)COCCOCCNC(=O)COCCOCCNC(=O)CC[C@H](NC(=O)CCCCCCCCCCCCCCCCCCC(=O)O)C(=O)O)C(=O)N[C@@H](CC(C)C)C(=O)N1CCC[C@H]1C(=O)N1CCC[C@H]1C(=O)N[C@H](C(=O)N[C@@H](CCC(=O)O)C(=O)N[C@H](C(=O)NCC(=O)N[C@@H](CO)C(=O)N[C@@H](CC(N)=O)C(=O)N[C@H](C(=O)N[C@@H](Cc1ccc(O)cc1)C(N)=O)[C@@H](C)O)C(C)C)[C@@H](C)O)C(C)C [Compound IX] (γGlu-CNTATCATGKLAEFLVRSSNNFGPK([AEEA-AEEA-γGlu-C20 diacid])LPPTEVGSNTY-NH2; linker 1-6 via CH2) | 0.132 ± 0.02 nM | 18.9 ± 3.83 nM |
| CC[C@H](C)[C@H](NC(=O)[C@@H]1CCCN1C(=O)CNC(=O)[C@H](Cc1ccccc1)NC(=O)[C@H](CC(=O)O)N(C)C(=O)[C@H](CC(N)=O)NC(=O)[C@H](CO)NC(=O)[C@H](CO)NC(=O)[C@H](CCCNC(=N)N)NC(=O)[C@@H](NC(=O)[C@H](CC(C)C)NC(=O)[C@](C)(Cc1ccccc1)NC(=O)[C@H](CCC(=O)O)NC(=O)[C@H](C)NC(=O)[C@H](CC(C)C)NC(=O)[C@H](CCCN)NC(=O)CNC(=O)[C@@H](NC(=O)[C@H](C)NC(=O)[C@@H]1CSCSC[C@H](NC(=O)[C@@H](N)CCCCN)C(=O)N[C@@H](CCC(=O)O)C(=O)N[C@@H]([C@@H](C)O)C(=O)N[C@@H](C)C(=O)N[C@@H]([C@@H](C)O)C(=O)N1)[C@@H](C)O)C(C)C)C(=O)N[C@@H](CC(C)C)C(=O)N1CCC[C@H]1C(=O)N1CCC[C@H]1C(=O)N[C@H](C(=O)N[C@@H](CCC(=O)O)C(=O)N[C@H](C(=O)NCC(=O)N[C@@H](CO)C(=O)N[C@@H](CC(N)=O)C(=O)N[C@H](C(=O)N[C@@H](Cc1ccc(O)cc1)C(N)=O)[C@@H](C)O)C(C)C)[C@@H](C)O [Compound V, KCETATCATG-Orn-LAE-αMeF-LVRSSN-NMeD-FGPILPPTEVGSNTY-NH2] (H-KCETATCATG[Orn]LAE[αMeF]LVRSSN[NMeD]FGPILPPTEVGSNTY-NH2; linker 2-7 via CH2) | 0.139 ± 0.017 nM | 17 ± 2.44 nM |
| CC[C@H](C)[C@H](NC(=O)[C@@H]1CCCN1C(=O)CNC(=O)[C@H](Cc1ccccc1)NC(=O)[C@H](CC(N)=O)NC(=O)[C@H](Cc1c[nH]cn1)NC(=O)[C@H](CO)NC(=O)[C@H](CO)NC(=O)[C@H](CCCNC(=N)N)NC(=O)[C@@H](NC(=O)[C@H](CC(C)C)NC(=O)[C@H](Cc1ccccc1)NC(=O)[C@H](CCC(=O)O)NC(=O)[C@H](C)NC(=O)[C@](C)(CC(C)C)NC(=O)[C@H](CCCN)NC(=O)CNC(=O)[C@@H](NC(=O)[C@H](C)NC(=O)[C@@H]1CSCSC[C@H](NC(=O)[C@@H](N)CCCCN)C(=O)N[C@@H](CCC(=O)O)C(=O)N[C@@H]([C@@H](C)O)C(=O)N[C@@H](C)C(=O)N[C@@H]([C@@H](C)O)C(=O)N1)[C@@H](C)O)C(C)C)C(=O)N[C@@H](CC(C)C)C(=O)N1CCC[C@H]1C(=O)N1CCC[C@H]1C(=O)N[C@H](C(=O)N[C@@H](CCC(=O)O)C(=O)N[C@H](C(=O)NCC(=O)N[C@@H](CO)C(=O)N[C@@H](CC(N)=O)C(=O)N[C@H](C(=O)N[C@@H](Cc1ccc(O)cc1)C(N)=O)[C@@H](C)O)C(C)C)[C@@H](C)O [Compound VII] (H-KCETATCATG[Orn][αMeL]AEFLVRSSHNFGPILPPTEVGSNTY-NH2; linker 2-7 via CH2) | 0.173 ± 0.034 nM | 11.9 ± 1.53 nM |
| CC(C)C[C@H](NC(=O)[C@H](CCCN)NC(=O)CNC(=O)[C@@H](NC(=O)[C@H](C)NC(=O)[C@@H]1CSCSC[C@H](NC(=O)CC[C@H](N)C(=O)O)C(=O)NCC(=O)N[C@@H]([C@@H](C)O)C(=O)N[C@@H](C)C(=O)N[C@@H]([C@@H](C)O)C(=O)N1)[C@@H](C)O)C(=O)N[C@@H](C)C(=O)N[C@@H](CCC(=O)O)C(=O)N[C@@H](Cc1ccccc1)C(=O)N[C@@H](CC(C)C)C(=O)N[C@H](C(=O)N[C@@H](CCCNC(=N)N)C(=O)N[C@@H](CO)C(=O)N[C@@H](CO)C(=O)N[C@@H](CC(N)=O)C(=O)N[C@@H](CC(N)=O)C(=O)N[C@@H](Cc1ccccc1)C(=O)NCC(=O)N1CCC[C@H]1C(=O)N[C@@H](CCCCNC(=O)CC[C@H](NC(=O)CC[C@H](NC(=O)CCCCCCCCCCCCCCCCCCC(=O)O)C(=O)O)C(=O)O)C(=O)N[C@@H](CC(C)C)C(=O)N1CCC[C@H]1C(=O)N1CCC[C@H]1C(=O)N[C@H](C(=O)N[C@@H](CCC(=O)O)C(=O)N[C@H](C(=O)NCC(=O)N[C@@H](CO)C(=O)N[C@@H](CC(N)=O)C(=O)N[C@H](C(=O)N[C@@H](Cc1ccc(O)cc1)C(N)=O)[C@@H](C)O)C(C)C)[C@@H](C)O)C(C)C [Compound XIII] (γGlu-CGTATCATG[Orn]LAEFLVRSSNNFGPK([γGlu-γGlu-C20 diacid])LPPTEVGSNTY-NH2; linker 1-6 via CH2) | 0.078 ± 0.014 nM | 9.49 ± 1.54 nM |
